This note sets out measurements from patent publication US20180203014A1, “COMPOSITIONS FOR DETECTING CIRCULATING INTEGRIN BETA-3 BIOMARKER AND METHODS FOR DETECTING CANCERS AND ASSESSING TUMOR PRESENCE OR PROGRESSION, CANCER DRUG RESISTANCE AND TUMOR STEMNESS” (The Regents of the University of California, priority 2015, published 2018).

In assay [1] the test system is panel of human carcinoma cell lines. Put plainly: Tumorsphere assay (Example 2). As to conditions: for tumorsphere formation in vitro, combination with erlotinib: β3-positive cells (FG-β3, PANC-1, A549), erlotinib 0.5 μM with lenalidomide 1-2 μM or bortezomib 4 nM; for impact of integrin β3 expression on resistance: β3-negative vs β3-positive cells. Format: cell-based. As for the experimental part: Tumorsphere assay was performed as previously described (10). […] The media was replaced with fresh inhibitor 2/6 times a week. Survival curves were generated at least with five concentration points.

The test system of assay [2] is β3-positive cells (FG-β3, MDA-MB231, FG-R). Put plainly: Anchorage independent growth in soft agar, NFkB inhibitors with erlotinib (FIG. 31). The assay is classed as cell-based, human. The note with it: Lenalidomide 2 μM, PS-1145 1 μM, 10 to 15 days; for response of colonies / tumorsphere formation to single agent: β3-positive cells (intrinsic or acquired resistant), each agent alone: erlotinib 0.5 μM; for tumorsphere formation, combination with erlotinib: β3-positive cells, in combination with erlotinib 0.5 μM. An excerpt: Then, the soft agar were stained with crystal violet and the colonies were counted manually.

Assay [3] deals with subcutaneous β3-positive tumors (FG-β3, FG-R). Description: Subcutaneous β3-positive tumors in mice. As to conditions: for tumor growth, monotherapy: lenalidomide 25 mg/kg/day or bortezomib 0.25 mg/kg alone; for tumor growth in vivo, combination with erlotinib: with erlotinib 25 mg/kg/day, lenalidomide 25 mg/kg/day (FG-β3) or bortezomib 0.25 mg/kg (FG-R).
Procedure: FG pancreatic carcinoma cells (1×10^6 tumor cells in 30 μl of PBS) were injected into the pancreas of 6- to 8-week-old male nude mice as previously described (10). Tumors were established for 2-3 weeks (tumor sizes were monitored by ultrasound) before beginning dosing. […] FG pancreatic carcinoma cells (1×10^6 tumor cells in 30 μl of PBS) were injected into the pancreas of 6- to 8-week-old male nude mice as previously described (10). Tumors were established for 2-3 weeks (tumor sizes were monitored by ultrasound) before beginning dosing. […] Tumors were measured every 2-3 days with calipers until they were harvested at day 10,16 or after acquired resistance.
Tumor dimensions are reported as the fold change relative to size of the same tumor on Day 1. Mean±SEM, (A) *P=0.042 using a one way ANOVA test. n=6 mice per group. […] Tumor dimensions are reported as the fold change relative to size of the same tumor on Day 1. *P=0.0134 using a one way ANOVA test. n=8 mice per group.
For assay [4], the system named is FG and FG-β3 cells. Description: Tumor sphere formation assay (Example 1). The assay is classed as cell-based, human. The note with it: for effect of αvβ3 expression on drug resistance (tumor sphere formation): FG lacking β3 vs FG-β3, in vitro. How it is done:
Tumor spheres formation assays were performed essentially as described previously^17. […] Colonies were stained with crystal violet and scored with an Olympus SZH10 microscope. Survival curves were generated at least with five concentration points.

For assay [5], the system named is β3-positive and β3-negative tumor cells (FG, PANC-1). Put plainly: Self renewal tumorsphere assay and soft agar assay, 3D (Example 3). Format: cell-based, human. As to conditions: β3 ectopic expression (FG) or knockdown (PANC-1). As for the experimental part:
Tumorsphere assay was performed as previously described. Soft agar formation assays were performed essentially as described previously. […] The media was replaced with fresh inhibitor 2/5 times a week. Survival curves were generated at least with five concentration points. […] Cells were treated with a dose response of gemcitabine, cisplatin, erlotinib, lapatinib and linsitinib. […] Tumor volumes are expressed as mean±SEM. *P<0.05. […] Results are expressed as % tumor weight compared to vehicle control. *P<0.05. […] Data are mean±SE; **P<0.001. […] Scale bar, 50 μm.

For assay [6], the system named is PANC-1 cells. Description: Tumor sphere formation assay, knockdown of αvβ3 (Example 1). The assay is classed as cell-based, human. How it is done: Tumor spheres formation assays were performed essentially as described previously^17. Briefly, cells were seeded at 1000 to 2000 cells per well and grown for 12 days to 3 weeks. […] Colonies were stained with crystal violet and scored with an Olympus SZH10 microscope. Survival curves were generated at least with five concentration points.

For assay [7], the system named is phosphorylated TBK1 and NF-κB. Put plainly: Immunoblot analysis of RalB effectors in cells grown in suspension and treated with erlotinib. Format: cell-based, human. The note with it: αvβ3 negative cells, erlotinib 0.5 μM. In general terms: In western blotting, separated proteins are transferred to a membrane and probed.
Procedure: Cells were lysed in either RIPA lysis buffer (50 mM Tris pH 7.4, 100 mM NaCL, 2 mM EDTA, 10% DOC, 10% Triton, 0.1% SDS) or Triton lysis buffer (50 mM Tris pH 7.5, 150 mN NaCl, 1 mM EDTA, 5 mM MgCl2, 10% Glycerol, 1% Triton) supplemented with complete protease and phosphatase inhibitor mixtures (Roche) and centrifuged at 13,000 g for 10 min at 4° C. Protein concentration was determined by BCA assay. 500 μg to 1 mg of protein were immunoprecipitated with 3 μg of anti-integrin αvβ-3 (LM609) overnight at 4° C. following by capture with 25 μl of protein A/G (Pierce). Beads were washed five times, eluted in Laemmli buffer, resolved on NuPAGE 4-12% Bis-Tris Gel (Invitrogen) and immunoblotting was performed with anti-integrin β3 (Santa Cruz), anti-RalB (Cell Signaling Technology), anti KRAS (Santa Cruz). For immunoblot analysis, 25 of protein was boiled in Laemmli buffer and resolved on 8% to 15% gel. […]
The test system of assay [8] is subcutaneous A549 xenografts. Put plainly: Subcutaneous A549 xenografts, integrin β3 knockdown. Format: in vivo, mice. The note with it: A549 shCTRL vs sh β3, erlotinib 25 mg/kg/day, 16 days. An excerpt:
(A) Immunoblots showing integrin β3 knockdown efficiency in cells used in FIG. 1. […] Tumor volumes are expressed as mean±SEM. n=8 mice per group. (C) Immunoblots showing expression of indicated proteins of representative tumors. […] (E) Effect of integrin β3 expression on lapatinib, OSI-906, cisplatin and gemcitabine n=3; mean±SEM. (F) Viability assay (CellTiter-Glo assay) of FG and FG-β3 cells grown in suspension in media with or without serum. n=2; mean+SEM. *P<0.05. **P<0.01.
(a) Effect of integrin β3 expression (ectopic expression for FG and integrin β3-specific knockdown for PANC-1) cells on drug treatment response. Cells were treated with a dose response of gemcitabine, cisplatin, erlotinib, lapatinib and linsitinib. […] Tumor volumes are expressed as mean±SEM. *P<0.05. […] Results are expressed as % tumor weight compared to vehicle control. *P<0.05. […] (f) Relative mRNA expression of integrin β3 (ITGB3) in HCC827 vehicle-treated tumors (n=5) or erlotinib-treated tumors (n=7) from (e) after acquired resistance. Data are mean±SE; **P<0.001. […] Scale bar, 50 μm. […] The HCC827 erlotinib-treated tumors have been digested and sorted in two groups: the integrin β3− and the integrin β3+ population.

Assay [9] relates to orthotopic FG pancreatic tumors. Description: Orthotopic pancreas cancer xenograft model. The assay is classed as in vivo, mice. How it is done: All mouse experiments were carried out in accordance with approved protocols from the UCSD animal subjects committee and with the guidelines set forth in the NIH Guide for the Care and Use of Laboratory Animals. Tumors were generated by injection of FG human pancreatic carcinoma cells (10^6 tumor cells in 30 μL of sterile PBS) into the tail of the pancreas of 6-8 week old male immune compromised nu/nu mice.
Tumors were generated as previously described (JAY).

Assay [10] deals with HCC827 xenograft tumors. Put plainly: HCC827 xenograft tumors treated until acquired resistance. The assay is classed as in vivo, mice. The note with it: erlotinib 12.5 mg/kg/day until acquired resistance. An excerpt: Tumor volumes are expressed as mean±SEM. *P<0.05. […] Results are expressed as % tumor weight compared to vehicle control. *P<0.05. […] Data are mean±SE; **P<0.001. […] Scale bar, 50 μm.

In assay [11] the test system is H441 human lung adenocarcinoma orthotopic tumors. Description: Orthotopic lung cancer xenograft model. The assay is classed as in vivo, mice.
Procedure: FG pancreatic carcinoma cells (1×10^6 tumor cells in 30 μl of PBS) were injected into the pancreas of 6- to 8-week-old male nude mice as previously described (10). Tumors were established for 2-3 weeks (tumor sizes were monitored by ultrasound) before beginning dosing. […] H441 lung adenocarcinoma cells were generated as previously described (21). […] FG pancreatic carcinoma cells (1×10^6 tumor cells in 30 μl of PBS) were injected into the pancreas of 6- to 8-week-old male nude mice as previously described (10). Tumors were established for 2-3 weeks (tumor sizes were monitored by ultrasound) before beginning dosing. […] H441 lung adenocarcinoma cells were generated as previously described (21). […] Tumors were measured every 2-3 days with calipers until they were harvested at day 10,16 or after acquired resistance.
For assay [12], the system named is integrin αvβ3 (CD61). Description: Flow cytometry of αvβ3 after prolonged EGFR TKI exposure in vitro. Format: cell-based, human. As to conditions: FG, Miapaca-2 and other erlotinib sensitive lines, weeks of treatment. How it is done:
Human pancreatic (FG, PANC-1, Miapaca-2 (MP2), CFPAC-1, XPA-1, CAPAN-1, BxPc3), breast (MDAMB231, MDAMB468 (MDA468), BT20, SKBR3, BT474), colon (SW480) and lung (A549, H441) cancer cell lines were grown in ATCC recommended media supplemented with 10% fetal bovine serum, glutamine and non-essential amino acids. We obtained FG-β3, FG-D119A mutant and PANC-shβ3 cells as previously described^17. […] Cisplatin was generated from Sigma-Aldrich. Lenalidomide was purchased from LC Laboratories.
200,000 cells, after drug or vehicle treatment, were washed with PBS and incubated for 20 minutes with the Live/Dead reagent (Invitrogen) according to the manufacturer's instruction, then, cells were fixed with 4% paraformaldehyde for 15 min and blocked for 30 min with 2% BSA in PBS. Cells were stained with fluorescent-conjugated antibodies to CD61 (LM609), CD44 (eBioscience), CD24 (eBioscience), CD34 (eBioscience), CD133 (Santa Cruz), CD56 (eBioscience), CD29 (P4C10) and CD49f (eBioscience). All antibodies were used at 1:100 dilutions, 30 minutes at 4° C. After washing several times with PBS, cells were analyzed by FACS.
For orientation: In flow cytometry, cells or beads pass a laser one at a time.

For assay [13], the system named is stage IV non-small cell lung cancer. Description: Serial biopsies from NSCLC patients on erlotinib therapy. Format: in vivo, human. As for the experimental part:
All biopsies are from lung or pleural effusion. […] This work was approved by the UCSD Institutional Review Board (IRB).
Immunostaining was performed according to the manufacturer's recommendations (Vector Labs) on […] sections of paraffin-embedded tumors from tumor biopsies from lung cancer patients. Tumor sections were processed as previously described (23) using integrin β3 (Abcam clone EP2417Y). Sections stained with integrin β3 were scored by a H-score according to the staining intensity (SI) on a scale 0 to 3 within the whole tissue section.

For assay [14], the system named is HCC827 human lung cancer cells. Put plainly: Circulating tumor cells from orthotopic HCC827 lung tumors (FIG. 30). Format: in vivo, mice. As to conditions: orthotopic HCC827, 3 months at 25 mg/kg/day. An excerpt:
FIG. 30 illustrates data showing integrin β3 (CD61) is a RTKI (Receptor Tyrosine Kinase (RTK) Inhibitor) drug resistance biomarker on the surface of circulating tumor cells; as discussed in detail in Example 2, below.

The mark [15] stands for this setting: systemic erlotinib treatment for 7-8 weeks.

Molecules are shown by their SMILES. “Also recorded” adds a separate entry of the source.

`Nc1cccc2c1CN(C1CCC(=O)NC1=O)C2=O` (racemic) [lenalidomide, (RS)-3-(4-amino-1-oxo-3H-isoindol-2-yl)piperidine-2,6-dione]: in [1], the “tumorsphere formation in vitro, combination with erlotinib” value was “decreased tumorsphere formation”. For the same compound, in assay [2], the “response of colonies / tumorsphere formation to single agent” value is “resistant” and the “tumorsphere formation, combination with erlotinib” value is recorded as “decreased tumorsphere formation”. Also, in [3], the “tumor growth, monotherapy” value is listed as “failed to impact tumor growth” and the “tumor growth in vivo, combination with erlotinib” value was “completely suppressed tumor growth”.
Turning to `C[C@]1(O)C[C@@H](c2nc(-c3ccc4ccc(-c5ccccc5)nc4c3)c3c(N)nccn32)C1` [OSI-906], the “effect of αvβ3 expression on drug resistance (tumor sphere formation)” value (shortened to “effect of αvβ3 expression”) in [4] was “induced resistance”. The “effect of β3 expression on drug response, cells growing in 3D” value (from here on “effect of β3 expression on drug response”) in assay [5] is given as “reduced sensitivity”.
With `O=C(Nc1cc(Cl)cc2c1[nH]c1cnccc12)c1cccnc1` [PS-1145], in assay [2], the “response of colonies / tumorsphere formation to single agent” value is given as “resistant” and the “tumorsphere formation, combination with erlotinib” value is “decreased tumorsphere formation”.
In the case of `CC(C)C[C@H](NC(=O)[C@H](Cc1ccccc1)NC(=O)c1cnccn1)B(O)O` [bortezomib], in [1], the “tumorsphere formation in vitro, combination with erlotinib” value is “decreased tumorsphere formation”. In addition, in assay [3], the “tumor growth, monotherapy” value is reported as “failed to impact tumor growth” and the “tumor growth in vivo, combination with erlotinib” value is given as “completely suppressed tumor growth”.
As for `N.N.[Cl][Pt][Cl]` [cisplatin], the “effect of αvβ3 expression” value in assay [4] is “failed to protect cells”. The “impact of integrin β3 expression on resistance” value in assay [1] is given as “did not impact resistance”. Moreover, the “effect of β3 expression on drug response” value in [5] was “did not impact the response”.
As to `C#Cc1cccc(Nc2ncnc3cc(OCCOC)c(OCCOC)cc23)c1` [erlotinib, N-(3-ethynylphenyl)-6,7-bis(2-methoxyethoxy) quinazolin-4-amine], the “erlotinib resistance, ligation competent vs incompetent integrin αvβ3” value in assay [4] (FG cells transfected with WT β3 or D119A mutant) is on record as “same degree of erlotinib resistance”. For the same compound, the “effect of αvβ3 expression” value in [4] is reported as “dramatically increased erlotinib resistance”. For the same compound, the “increase in tumor cell sensitivity to erlotinib after knockdown of αvβ3” value in assay [6] was found to be 10 fold. In [7], the “levels / activation of phosphorylated TBK1 and NF-κB” value is “reduced; also recorded: decreased the activation”. In addition, the erlotinib response entry in [1] (H1650 cells, wildtype KRAS and mutant EGFR) is on record as “resistant”; in assay [1] (tumor cell lines with oncogenic KRAS: FG, H441, and CAPAN1), “sensitive”. Moreover, the “erlotinib resistance after knockdown of integrin β3” value in assay [8] is given as “overcame erlotinib resistance”. Also, in assay [9] (FG vs FG-β3 orthotopic tumors, systemic treatment), the “erlotinib resistance of orthotopic pancreatic tumors with ectopic β3 expression” value was “dramatically increased erlotinib resistance; also recorded: conferred erlotinib resistance”. Besides, in assay [9] (orthotopic FG pancreatic tumors, four weeks of erlotinib treatment), the “increase in αvβ3 expression” value turned out to be 10 fold. Further, the “EGFR phosphorylation in tumor lysates (immunoblot)” value in assay [9] (orthotopic FG tumors after 10 days of erlotinib) is “suppressed EGFR phosphorylation”. Besides, the “effect of β3 expression on drug response” value in assay [5] is listed as “reduced sensitivity”. In addition, the “response of colonies / tumorsphere formation to single agent” value in assay [2] is “resistant”. In addition, the “integrin β3 expression in erlotinib resistant vs vehicle-treated tumors” value in assay [10] is “significantly higher”. In assay [11] (erlotinib 100 mg/kg/day by oral gavage, start 3 weeks after tumor cell injection), this compound gave a time until moribund of approximately 58 days. For the same compound, the development of resistance entry in assay [11] (setting [15]) was “developed resistance”. In addition, in assay [11] (setting [15]), the “integrin αvβ3 expression compared with vehicle-treated tumors” value was “qualitative increase in integrin αvβ3 expression”. Besides, the “integrin αvβ3 / β3 expression after prolonged erlotinib exposure in vitro” value in [12] is “the greater the expression level of αvβ3; also recorded: induction of β3 expression”. Besides, the “disease progression after days of erlotinib therapy” value was 920 days in assay [13] (Patient 1), 92 days in assay [13] (Patient 2) and 120 days in assay [13] (Patient 3). Besides, the initial response entry in assay [13] (all 3 patients) is “partial response”. Moreover, in assay [13] (paired lung tumor biopsies, immunohistochemistry), the “integrin β3 expression in biopsies after vs before erlotinib resistance” value is listed as “qualitative increase in integrin β3 expression; also recorded: qualitatively higher”. In addition, in [14], the “αvβ3 (CD61) status of human lung cancer cells detected in the circulation” value is on record as “positive for αvβ3”.
With `Nc1ccn([C@@H]2O[C@H](CO)[C@@H](O)C2(F)F)c(=O)n1` [gemcitabine], in assay [4], the “effect of αvβ3 expression” value was “failed to protect cells”. For the same compound, in assay [1], the “impact of integrin β3 expression on resistance” value was “did not impact resistance”. Moreover, the “effect of β3 expression on drug response” value in assay [5] was “did not impact the response”.
Turning to `CS(=O)(=O)CCNCc1ccc(-c2ccc3ncnc(Nc4ccc(OCc5cccc(F)c5)c(Cl)c4)c3c2)o1` [lapatinib], the “effect of β3 expression on drug response” value in assay [5] is given as “reduced sensitivity”.
